Test results: US12221422B2, “Compounds and their use for the treatment of alpha1-antitrypsin deficiency” (CENTESSA PHARMACEUTICALS (UK) LIMITED, priority 2018, dated 2025)

Biological target: human Z A1AT (Homo sapiens, UniProt P01009, E366K)
Experiment: Circulating human Z A1AT levels in huZ mice
Assay type: in vivo, huZ mouse
Design: from tissue; host or cells: huZ (PiZZ) transgenic mice, line Z11.03, C57Bl/6 background; made in liver, measured in plasma
Details: huZ mice, 5, 15 or 50 mg/kg twice a day by oral gavage, 14 days, plasma days 12-14
Source text: The huZ mouse (also referred to as the PiZZ mouse) is a transgenic mouse strain that contains multiple copies of the Z variant of the human A1AT gene, developed by two separate groups Dycaico et al (Science (1988) 242:1409-12) and Carlson et al (J. Clin Invest (1989) 83:1183-90). PiZZ mice are on a C57Bl/6 background and express the human Z A1AT protein in liver tissue. The mice used in this study are from the progeny of Carlson and colleagues (transgenic line Z11.03). […]
HuZ mice (n=4/group; male or female) with basal human A1AT plasma levels of between 200-600 μg/ml were treated with either vehicle or N,N-dimethyl-4-((6-oxopyrimidin-1(6H)-yl)methyl)benzamide at 5, 15 or 50 mg/kg twice a day by oral gavage for 14 consecutive days. […] Human Z A1AT levels in mouse plasma samples were measured by ELISA (Human Serpin A1/α1-antitrypsin duo set ELISA, R& D Systems, DY1268) per manufacturer's instructions.
Briefly, a 96 well plate was coated with human A1AT capture antibody overnight at room temperature (1:180 dilution from stock, 100 μl final volume/well). […] After which, 50 μl stop solution (2M H2SO4) was added and optical density (OD) of each well was read at 450 nm with 570 nm blank subtracted from each well using a microplate reader. […]
The effect of N,N-dimethyl-4-((6-oxopyrimidin-1(6H)-yl)methyl)benzamide on circulating levels of human Z A1AT was assessed in a huZ mouse model. […]

human Z A1AT, sequence (P01009 25-418 E366K): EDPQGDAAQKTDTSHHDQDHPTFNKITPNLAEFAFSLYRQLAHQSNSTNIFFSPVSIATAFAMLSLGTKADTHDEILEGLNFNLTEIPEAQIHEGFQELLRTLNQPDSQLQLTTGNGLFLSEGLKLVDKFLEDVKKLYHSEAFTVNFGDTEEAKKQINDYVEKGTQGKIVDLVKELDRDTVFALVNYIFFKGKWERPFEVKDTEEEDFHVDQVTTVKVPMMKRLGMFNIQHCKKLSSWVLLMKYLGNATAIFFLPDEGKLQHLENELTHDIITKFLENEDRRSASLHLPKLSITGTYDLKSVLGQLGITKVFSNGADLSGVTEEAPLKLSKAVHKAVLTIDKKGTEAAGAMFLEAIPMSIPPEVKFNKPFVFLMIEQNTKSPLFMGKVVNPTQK

CN(C)C(=O)c1ccc(Cn2cnccc2=O)cc1 [N,N-dimethyl-4-((6-oxopyrimidin-1(6H)-yl)methyl)benzamide]
circulating human Z A1AT compared to baseline levels: stimulates secretion of human Z A1AT compared to baseline levels in huZ mice in a dose dependent manner
